Legend:
[1] = target: T1, SRC (Homo sapiens, UniProt P12931); test: cell-free kinase assay; format: biochemical
T1 construct: purchased Carna Biosciences
Summary of the method: (§1)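 Values come from a cell-free kinase selectivity panel of 53 enzymes, with the inhibitor tested at two concentrations against each.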

[2] = target: T2, SYK (Homo sapiens, UniProt P43405); test: cell-free kinase assay; format: biochemical; conditions: single inhibitor concentration
T2 construct: purchased Carna Biosciences
Summary of the method: as §1

[3] = target: T3, EGFR (Homo sapiens, UniProt P00533); test: cell-free kinase assay; format: biochemical; conditions: single inhibitor concentration
T3 construct: purchased Carna Biosciences
Summary of the method: as §1

[4] = target: T4, Erk2 (Homo sapiens, UniProt P28482); test: cell-free kinase assay; format: biochemical; conditions: single inhibitor concentration
T4 construct: purchased Carna Biosciences
Summary of the method: as §1

[5] = target: T5, HGK (Homo sapiens, UniProt O95819); test: cell-free kinase assay; format: biochemical
T5 construct: purchased Carna Biosciences
Summary of the method: as §1

[6] = target: T6, JNK2 (Homo sapiens, UniProt P45984); test: cell-free kinase assay; format: biochemical; conditions: single inhibitor concentration
T6 construct: purchased Carna Biosciences
Summary of the method: as §1

[7] = target: T7, MAPKAPK2 (Homo sapiens, UniProt P49137); test: cell-free kinase assay; format: biochemical; conditions: single inhibitor concentration
T7 construct: purchased Carna Biosciences
Summary of the method: as §1

[8] = target: T8, YES (Homo sapiens, UniProt P07947); test: cell-free kinase assay; format: biochemical; conditions: for IC50: YES
T8 construct: purchased Carna Biosciences
Summary of the method: as §1

[9] = target: T9, TRKC (Homo sapiens, UniProt Q16288); test: cell-free kinase assay; format: biochemical
T9 construct: purchased Carna Biosciences
Source text: (§2) We investigated the potency and selectivity of BI 10N against 56 kinases using a cell-free assay (Table 8A). […] The selectivity of this inhibitor was investigated by testing the potency of the inhibitor at two concentrations with 53 kinases by Carna Biosciences (MA) (Table 2).

[10] = target: T10, IGF1R (Homo sapiens, UniProt P08069); test: cell-free kinase assay; format: biochemical
T10 construct: purchased Carna Biosciences
Source text: as §2

[11] = target: T11, FGFR1 (Homo sapiens, UniProt P11362); test: cell-free kinase assay; format: biochemical
T11 construct: purchased Carna Biosciences
Source text: as §2

[12] = target: T12, LCK (Homo sapiens, UniProt P06239); test: cell-free kinase assay; format: biochemical
T12 construct: purchased Carna Biosciences
Source text: as §2

[13] = target: T13, TRKA (Homo sapiens, UniProt P04629); test: cell-free kinase assay; format: biochemical
T13 construct: purchased Carna Biosciences
Source text: as §2

[14] = target: T14, FYN (Homo sapiens, UniProt P06241); test: cell-free kinase assay; format: biochemical; conditions: Table 2, by Carna Biosciences
T14 construct: purchased Carna Biosciences
Source text: as §2

[15] = target: T15, ABL (Homo sapiens, UniProt P00519); test: cell-free kinase assay; format: biochemical
T15 construct: purchased Carna Biosciences
Source text: as §2

[16] = system: primary melanoma in the PTEN/BRAF GEMM; test: PTEN/BRAF GEMM primary melanoma model; format: in vivo, mice
Source text: FIG. 7A-7B Effects of BI 10N inhibitor on growth of primary melanoma in the PTEN/BRAF GEMM. A primary melanoma tumor from the PTEN/BRAF mouse GEMM untreated with inhibitors stained with acid fast red for ITK using ITK antibody (Abeam cat#ab32113) (data not shown). A PTEN/BRAF mouse model was used for these in vivo studies. The mice were painted with 4HT (4-hydroxy-tamoxifen) at the base of their tails and within about 4 weeks, 4 mm×4 mm melanomas were typically present in each mouse. The animals were then divided into treatment or no treatment groups. FIG. 7A) Animals were treated as described in panel B, then placed on BI 10N BI 10N at 15 MPK or not treated. Mice were followed for 7 weeks and their tumors were measured once a week to assess tumor volume as described in the Materials and Methods. FIG. 7B) Effect of BI 10N on tumor growth (mean and standard error of mean) in the PTEN/BRAF GEMM. […] The effects of AZD6244 and PLX4032 on tumor growth are also shown. Samples sizes are indicated in parentheses.
All animal studies were approved by UNC-CH Institute for Animal Care and Use Committee prior to study start. PTEN/BRAF mice were bred in house, and tumors were induced with 1 ul of 20 mM Tamoxafen at 4 weeks near the base of the tail as previously described (Dankort et al., 2009 Nat Genet 41(5): 544-52). […]

T13 sequence (P04629 33-796): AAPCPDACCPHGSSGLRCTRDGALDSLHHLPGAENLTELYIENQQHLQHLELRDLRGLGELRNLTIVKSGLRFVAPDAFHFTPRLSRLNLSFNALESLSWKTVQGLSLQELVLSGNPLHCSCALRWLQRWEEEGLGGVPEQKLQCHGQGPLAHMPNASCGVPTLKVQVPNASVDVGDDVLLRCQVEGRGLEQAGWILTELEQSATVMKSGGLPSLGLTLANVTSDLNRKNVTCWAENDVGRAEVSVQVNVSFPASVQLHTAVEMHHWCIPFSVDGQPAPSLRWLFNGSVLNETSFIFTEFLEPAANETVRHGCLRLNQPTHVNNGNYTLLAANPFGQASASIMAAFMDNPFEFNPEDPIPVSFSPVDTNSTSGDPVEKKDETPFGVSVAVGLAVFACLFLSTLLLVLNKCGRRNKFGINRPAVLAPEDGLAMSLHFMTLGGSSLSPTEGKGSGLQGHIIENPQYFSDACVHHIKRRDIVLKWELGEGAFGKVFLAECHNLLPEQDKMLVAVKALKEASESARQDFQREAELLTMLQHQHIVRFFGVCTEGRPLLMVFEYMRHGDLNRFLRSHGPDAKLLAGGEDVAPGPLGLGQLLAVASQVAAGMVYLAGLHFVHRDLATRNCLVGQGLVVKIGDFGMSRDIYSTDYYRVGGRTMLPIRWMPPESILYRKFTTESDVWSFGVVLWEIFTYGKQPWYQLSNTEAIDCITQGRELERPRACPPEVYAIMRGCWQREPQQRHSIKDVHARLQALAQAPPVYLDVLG
T8 sequence (P07947 whole entry): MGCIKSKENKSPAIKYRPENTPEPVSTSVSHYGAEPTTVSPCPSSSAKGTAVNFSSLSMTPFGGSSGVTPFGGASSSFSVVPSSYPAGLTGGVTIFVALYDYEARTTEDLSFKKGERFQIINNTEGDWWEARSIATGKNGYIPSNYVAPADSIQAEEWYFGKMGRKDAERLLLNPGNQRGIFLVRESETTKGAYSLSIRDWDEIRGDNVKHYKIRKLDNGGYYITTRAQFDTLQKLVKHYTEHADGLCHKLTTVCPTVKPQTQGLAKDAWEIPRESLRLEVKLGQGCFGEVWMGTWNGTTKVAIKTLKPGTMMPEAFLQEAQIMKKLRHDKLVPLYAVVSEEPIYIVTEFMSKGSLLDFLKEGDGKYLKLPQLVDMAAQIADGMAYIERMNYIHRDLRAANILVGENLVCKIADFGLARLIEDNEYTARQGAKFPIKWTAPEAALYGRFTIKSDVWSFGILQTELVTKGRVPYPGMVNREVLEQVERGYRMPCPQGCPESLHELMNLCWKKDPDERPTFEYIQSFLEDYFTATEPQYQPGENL
T5 sequence (O95819 whole entry): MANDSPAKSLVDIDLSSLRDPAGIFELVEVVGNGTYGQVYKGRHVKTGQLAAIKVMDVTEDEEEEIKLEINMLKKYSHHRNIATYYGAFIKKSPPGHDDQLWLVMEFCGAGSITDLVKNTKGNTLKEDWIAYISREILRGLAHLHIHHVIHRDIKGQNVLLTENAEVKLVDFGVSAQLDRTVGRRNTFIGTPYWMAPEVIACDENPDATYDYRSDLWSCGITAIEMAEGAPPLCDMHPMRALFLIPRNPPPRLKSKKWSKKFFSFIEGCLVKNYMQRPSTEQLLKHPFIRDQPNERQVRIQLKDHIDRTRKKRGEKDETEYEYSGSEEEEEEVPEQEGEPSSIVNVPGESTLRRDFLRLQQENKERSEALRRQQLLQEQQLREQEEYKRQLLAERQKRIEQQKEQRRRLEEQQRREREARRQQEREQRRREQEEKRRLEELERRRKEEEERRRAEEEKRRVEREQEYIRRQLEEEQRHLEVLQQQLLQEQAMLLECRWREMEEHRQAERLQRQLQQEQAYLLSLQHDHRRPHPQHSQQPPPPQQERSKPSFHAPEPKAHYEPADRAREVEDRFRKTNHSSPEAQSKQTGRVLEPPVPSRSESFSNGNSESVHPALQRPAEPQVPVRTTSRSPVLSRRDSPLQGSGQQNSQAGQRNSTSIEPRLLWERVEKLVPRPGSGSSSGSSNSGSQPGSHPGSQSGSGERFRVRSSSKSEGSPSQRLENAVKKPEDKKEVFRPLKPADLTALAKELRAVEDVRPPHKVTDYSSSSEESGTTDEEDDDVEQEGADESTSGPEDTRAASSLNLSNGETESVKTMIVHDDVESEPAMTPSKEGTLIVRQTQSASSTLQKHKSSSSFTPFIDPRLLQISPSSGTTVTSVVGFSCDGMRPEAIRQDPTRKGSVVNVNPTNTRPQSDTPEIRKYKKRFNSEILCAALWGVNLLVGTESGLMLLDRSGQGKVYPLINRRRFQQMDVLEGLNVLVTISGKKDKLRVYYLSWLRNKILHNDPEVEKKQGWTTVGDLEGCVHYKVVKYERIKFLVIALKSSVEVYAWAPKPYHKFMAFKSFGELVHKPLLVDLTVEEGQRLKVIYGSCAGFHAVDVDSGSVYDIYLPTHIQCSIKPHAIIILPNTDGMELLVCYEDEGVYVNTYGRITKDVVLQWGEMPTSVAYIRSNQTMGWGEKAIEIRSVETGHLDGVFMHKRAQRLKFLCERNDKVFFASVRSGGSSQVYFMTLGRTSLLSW
T9 sequence (Q16288 32-839): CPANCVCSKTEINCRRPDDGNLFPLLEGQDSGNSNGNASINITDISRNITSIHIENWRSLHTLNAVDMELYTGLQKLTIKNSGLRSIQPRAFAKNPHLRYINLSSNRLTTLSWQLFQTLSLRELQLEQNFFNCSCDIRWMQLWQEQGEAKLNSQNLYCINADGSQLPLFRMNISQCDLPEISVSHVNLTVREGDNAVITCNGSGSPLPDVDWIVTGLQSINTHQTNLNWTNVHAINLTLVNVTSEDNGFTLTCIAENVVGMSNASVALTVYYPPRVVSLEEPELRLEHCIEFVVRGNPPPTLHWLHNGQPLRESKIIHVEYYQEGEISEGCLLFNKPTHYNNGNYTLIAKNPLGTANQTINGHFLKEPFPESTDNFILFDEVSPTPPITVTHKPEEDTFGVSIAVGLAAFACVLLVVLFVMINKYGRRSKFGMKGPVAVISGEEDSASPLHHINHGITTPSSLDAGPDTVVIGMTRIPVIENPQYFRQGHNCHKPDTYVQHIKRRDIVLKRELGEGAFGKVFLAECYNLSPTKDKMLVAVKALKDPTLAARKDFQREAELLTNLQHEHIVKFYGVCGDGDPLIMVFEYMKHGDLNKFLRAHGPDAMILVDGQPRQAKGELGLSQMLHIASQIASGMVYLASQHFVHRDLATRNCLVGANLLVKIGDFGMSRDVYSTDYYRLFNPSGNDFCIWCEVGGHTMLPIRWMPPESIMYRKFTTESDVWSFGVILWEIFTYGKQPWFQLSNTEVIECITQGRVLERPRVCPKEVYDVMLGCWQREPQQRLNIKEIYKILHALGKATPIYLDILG
T15 sequence (P00519 whole entry): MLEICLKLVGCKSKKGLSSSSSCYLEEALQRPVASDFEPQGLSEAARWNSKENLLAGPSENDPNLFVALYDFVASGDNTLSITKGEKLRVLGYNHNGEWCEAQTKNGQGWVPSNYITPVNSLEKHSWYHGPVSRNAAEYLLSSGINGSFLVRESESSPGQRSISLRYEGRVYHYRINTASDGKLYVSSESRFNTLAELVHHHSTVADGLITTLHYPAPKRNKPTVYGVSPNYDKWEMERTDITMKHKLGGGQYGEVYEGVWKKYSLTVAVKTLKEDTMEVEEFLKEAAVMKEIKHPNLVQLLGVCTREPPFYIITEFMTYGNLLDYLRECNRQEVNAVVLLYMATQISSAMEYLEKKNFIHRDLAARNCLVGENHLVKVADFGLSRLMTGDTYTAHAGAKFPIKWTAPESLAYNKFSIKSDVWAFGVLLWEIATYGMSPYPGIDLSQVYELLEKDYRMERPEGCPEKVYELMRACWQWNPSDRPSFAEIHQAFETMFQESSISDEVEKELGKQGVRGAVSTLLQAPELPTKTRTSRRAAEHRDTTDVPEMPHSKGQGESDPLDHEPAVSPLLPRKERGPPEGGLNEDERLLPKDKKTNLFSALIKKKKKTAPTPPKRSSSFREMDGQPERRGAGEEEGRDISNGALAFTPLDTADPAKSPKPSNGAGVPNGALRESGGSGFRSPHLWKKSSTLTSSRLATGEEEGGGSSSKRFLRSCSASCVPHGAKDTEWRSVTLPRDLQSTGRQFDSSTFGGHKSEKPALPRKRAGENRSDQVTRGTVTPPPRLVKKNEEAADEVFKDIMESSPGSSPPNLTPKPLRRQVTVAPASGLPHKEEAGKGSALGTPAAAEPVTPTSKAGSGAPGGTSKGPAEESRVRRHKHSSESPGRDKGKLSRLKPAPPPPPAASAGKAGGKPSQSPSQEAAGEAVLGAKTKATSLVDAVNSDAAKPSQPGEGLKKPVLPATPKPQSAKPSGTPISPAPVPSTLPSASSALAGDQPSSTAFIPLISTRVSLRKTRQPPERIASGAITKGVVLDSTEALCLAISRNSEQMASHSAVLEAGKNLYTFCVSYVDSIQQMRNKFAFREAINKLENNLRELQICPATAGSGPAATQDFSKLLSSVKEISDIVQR
T1 sequence (P12931 whole entry): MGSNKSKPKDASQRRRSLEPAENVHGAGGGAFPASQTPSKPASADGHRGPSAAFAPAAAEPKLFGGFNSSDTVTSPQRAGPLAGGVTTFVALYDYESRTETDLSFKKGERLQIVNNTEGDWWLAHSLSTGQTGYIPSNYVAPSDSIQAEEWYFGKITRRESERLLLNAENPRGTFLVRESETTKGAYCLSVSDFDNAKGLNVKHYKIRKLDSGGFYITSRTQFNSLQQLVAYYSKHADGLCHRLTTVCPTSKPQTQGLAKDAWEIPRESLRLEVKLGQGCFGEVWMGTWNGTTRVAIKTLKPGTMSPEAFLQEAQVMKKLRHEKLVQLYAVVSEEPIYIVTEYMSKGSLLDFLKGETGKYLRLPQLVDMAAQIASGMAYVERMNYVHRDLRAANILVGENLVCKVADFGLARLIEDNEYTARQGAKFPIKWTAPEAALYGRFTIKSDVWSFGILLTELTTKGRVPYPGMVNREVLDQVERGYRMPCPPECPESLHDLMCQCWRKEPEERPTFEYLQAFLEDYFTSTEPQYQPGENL

IC50 ([1]; Table 2, by Carna Biosciences): 3.76 nM
inhibition at 0.2 µM ([1]; single inhibitor concentration): 99.9%
inhibition at 0.2 µM [2]: 40.6%
inhibition at 0.2 µM [3]: 8.6%
inhibition at 0.2 µM [4]: -1.5%
IC50 ([5]; Table 2, by Carna Biosciences): 12.1 nM
inhibition at 0.2 µM ([5]; single inhibitor concentration): 100%
inhibition at 0.2 µM [6]: -0.1%
inhibition at 0.2 µM [7]: -5.2%
selectivity for ITK over YES [8]: about 10 fold
IC50 ([8]; 1 mM ATP, Km ATP 13 μM): 5.9 nM
IC50 ([8]; ATP concentration at approximately the Km for ATP): 0.993 nM
IC50 ([8]; Table 2, by Carna Biosciences): 0.993 nM
IC50 [9]: 1.58 nM
selectivity for ITK over TRKC [9]: about 10 fold
IC50 ([10]; Table 2, by Carna Biosciences): 886 nM
inhibition at 0.2 µM ([10]; single inhibitor concentration): 19%
IC50 ([11]; Table 2, by Carna Biosciences): 59.7 nM
inhibition at 0.2 µM ([11]; single inhibitor concentration): 80.2%
IC50 ([12]; Table 2, by Carna Biosciences): 10.6 nM
inhibition at 0.2 µM ([12]; single inhibitor concentration): 96.7%
selectivity for ITK over TRKA [13]: about 10 fold
mode of inhibition ([13]; TRKA): time-dependent inhibitor
IC50 ([13]; TRKA, 1 mM ATP, Km ATP 65 μM): 0.828 nM
IC50 ([13]; TRKA, ATP at approximately the Km for ATP, more potent than can be measured): < 0.5 nM
IC50 ([13]; TRKA, Table 2, by Carna Biosciences): 0.459 nM
inhibition at 0.2 µM ([13]; TRKA, single inhibitor concentration): 106%
IC50 [14]: 24.2 nM
IC50 ([15]; Table 2, by Carna Biosciences): 23.5 nM
inhibition at 0.2 µM ([15]; single inhibitor concentration): 91.9%
SMILES: CC(C)C(C)CNCc1ccc2c(c1)[nH]/c(=N\C(=O)c1ccc(C3=CN=NC3)s1)n2CC(C)(C)O (centres unmarked) [BI 10N]
tumor growth compared with AZD6244 and PLX4032 ([16]; PTEN/BRAF GEMM, FIG. 7B): performs better in vivo than MEK inhibitor AZD6244 (selumentinib) and V600E BRAF inhibitor PLX4032 (vemurafenib)
progression of tumors ([16]; PTEN/BRAF mice, 15 mg per kg, compared to the no treatment group): profoundly retarded the progression of tumors

— patent US9649313B2, “Use of ITK inhibitors for the treatment of cancer” (The University of North Carolina at Chapel Hill, priority 2012, dated 2017)
